# Laboratory results reported in patent publication US9145392B2, “Imidazole amines as modulators of kinase activity” (Merck Patent GmbH, priority 2011, dated 2015).
# Experiments:
# P70S6K (T412E mutant) = P70S6K (T412E mutant) (Homo sapiens (Human), UniProt P23443, T412E); assay: P70S6K enzyme assay; format: biochemical; details: read-out: IC50 p70S6K
# Procedure, shortened: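 Phosphorylated product and substrate peptide separated by microfluidic capillary electrophoresis (Caliper LabChip 3000), product peaks resolving before substrate.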
# His-AKT (Full Length) = His-AKT (Full Length) (Homo sapiens (Human), UniProt P31749); assay: AKT enzyme assay; format: biochemical; details: read-out: IC50 AKT
# Sequence of His-AKT (Full Length) (P31749 whole entry): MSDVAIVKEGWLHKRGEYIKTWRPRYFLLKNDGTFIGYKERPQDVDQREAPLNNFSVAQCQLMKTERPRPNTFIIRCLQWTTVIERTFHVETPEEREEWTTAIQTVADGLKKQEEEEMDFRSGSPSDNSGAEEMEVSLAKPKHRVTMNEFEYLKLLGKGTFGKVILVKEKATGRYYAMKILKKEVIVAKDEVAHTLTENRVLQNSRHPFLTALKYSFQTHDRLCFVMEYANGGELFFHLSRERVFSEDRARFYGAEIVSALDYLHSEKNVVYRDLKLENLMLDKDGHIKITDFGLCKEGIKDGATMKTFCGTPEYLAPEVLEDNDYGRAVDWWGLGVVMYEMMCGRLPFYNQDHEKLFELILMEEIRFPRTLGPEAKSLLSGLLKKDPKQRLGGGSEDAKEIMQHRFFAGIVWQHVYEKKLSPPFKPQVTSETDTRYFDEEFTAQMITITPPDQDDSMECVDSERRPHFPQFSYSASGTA
# Sequence of P70S6K (T412E mutant) (P23443 whole entry T412E): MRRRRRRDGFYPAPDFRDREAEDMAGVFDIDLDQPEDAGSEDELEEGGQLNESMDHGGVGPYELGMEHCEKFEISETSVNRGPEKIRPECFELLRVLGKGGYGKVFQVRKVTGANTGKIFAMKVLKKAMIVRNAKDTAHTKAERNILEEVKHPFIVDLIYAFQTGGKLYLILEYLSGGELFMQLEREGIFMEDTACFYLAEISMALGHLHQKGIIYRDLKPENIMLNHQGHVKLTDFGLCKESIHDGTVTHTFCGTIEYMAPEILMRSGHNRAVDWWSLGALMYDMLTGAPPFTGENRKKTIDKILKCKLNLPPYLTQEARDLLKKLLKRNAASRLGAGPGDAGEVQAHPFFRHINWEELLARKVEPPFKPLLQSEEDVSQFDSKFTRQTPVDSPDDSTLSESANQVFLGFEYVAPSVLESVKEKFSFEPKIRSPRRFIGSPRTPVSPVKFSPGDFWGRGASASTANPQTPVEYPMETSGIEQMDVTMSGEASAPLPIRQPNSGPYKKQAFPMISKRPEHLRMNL
IC50 (P70S6K (T412E mutant)) [nM],IC50 (His-AKT (Full Length)) [nM],SMILES
64.5,940,"CCc1c(N)ncnc1N1CCC(c2nc(-c3ccnc(OC)c3)cn2CCN2CCC2)CC1 [Compound 112, 6-(4-(1-(2-(azetidin-1-yl)ethyl)-4-(2-methoxypyridin-4-yl)-1H-imidazol-2-yl)piperidin-1-yl)-5-ethylpyrimidin-4-amine]"
84,465,"CCc1c(N)ncnc1N1CCC(c2nc(-c3cncc(C)c3)cn2CCN2CCC2)CC1 [Compound 113, 6-(4-(1-(2-(azetidin-1-yl)ethyl)-4-(5-methylpyridin-3-yl)-1H-imidazol-2-yl)piperidin-1-yl)-5-ethylpyrimidin-4-amine]"
3.6,6.6,"CC(C)c1c(N)ncnc1N1CCC(c2nc(-c3ccc(F)c(C(F)(F)F)c3)cn2CCN2CCC2)CC1 [Compound 114, 6-(4-(1-(2-(azetidin-1-yl)ethyl)-4-(4-fluoro-3-(trifluoromethyl)phenyl)-1H-imidazol-2-yl)piperidin-1-yl)-5-isopropylpyrimidin-4-amine]"
2.8,21,"COc1c(N)ncnc1N1CCC(c2nc(-c3ccnc(C(F)(F)F)c3)cn2CCN2CCC2)CC1 [Compound 115, 6-(4-(1-(2-(azetidin-1-yl)ethyl)-4-(2-(trifluoromethyl)pyridin-4-yl)-1H-imidazol-2-yl)piperidin-1-yl)-5-methoxypyrimidin-4-amine]"
2.4,8.2,"CCOc1c(N)ncnc1N1CCC(c2nc(-c3ccnc(C(F)(F)F)c3)cn2CCN2CCC2)CC1 [Compound 116, 6-(4-(1-(2-(azetidin-1-yl)ethyl)-4-(2-(trifluoromethyl)pyridin-4-yl)-1H-imidazol-2-yl)piperidin-1-yl)-5-ethoxypyrimidin-4-amine]"
4.9,9.1,"CC(C)Oc1c(N)ncnc1N1CCC(c2nc(-c3ccnc(C(F)(F)F)c3)cn2CCN2CCC2)CC1 [Compound 117, 6-(4-(1-(2-(azetidin-1-yl)ethyl)-4-(2-(trifluoromethyl)pyridin-4-yl)-1H-imidazol-2-yl)piperidin-1-yl)-5-isopropoxypyrimidin-4-amine]"
9.7,21,"Nc1ncnc(N2CCC(c3nc(-c4ccnc(C(F)(F)F)c4)cn3CCN3CCC3)CC2)c1OCC(F)(F)F [Compound 118, 6-(4-(1-(2-(azetidin-1-yl)ethyl)-4-(2-(trifluoromethyl)pyridin-4-yl)-1H-imidazol-2-yl)piperidin-1-yl)-5-(2,2,2-trifluoroethoxy)pyrimidin-4-amine]"
25,420,"CCc1c(N)ncnc1N1CCC(c2nc(-c3cccc(C(F)(F)F)n3)cn2CCN2CCC2)CC1 [Compound 119, 6-(4-(1-(2-(azetidin-1-yl)ethyl)-4-(6-(trifluoromethyl)pyridin-2-yl)-1H-imidazol-2-yl)piperidin-1-yl)-5-ethylpyrimidin-4-amine]"
1,2.4,"COc1cc(-c2cn(CCN3CCC3)c(C3CCN(c4ncnc(N)c4C#N)CC3)n2)ccc1F [Compound 120, 4-amino-6-(4-(1-(2-(azetidin-1-yl)ethyl)-4-(4-fluoro-3-methoxyphenyl)-1H-imidazol-2-yl)piperidin-1-yl)pyrimidine-5-carbonitrile]"
1,2.4,"COc1cc(-c2cn(CCN3CCC3)c(C3CCN(c4ncnc(N)c4C(N)=O)CC3)n2)ccc1F [Compound 121, 4-amino-6-(4-(1-(2-(azetidin-1-yl)ethyl)-4-(4-fluoro-3-methoxyphenyl)-1H-imidazol-2-yl)piperidin-1-yl)pyrimidine-5-carboxamide]"
0.7,2,"Cc1cc(-c2cn(CCN3CCC3)c(C3CCN(c4ncnc(N)c4C#N)CC3)n2)ccc1F [Compound 122, 4-amino-6-(4-(1-(2-(azetidin-1-yl)ethyl)-4-(4-fluoro-3-methylphenyl)-1H-imidazol-2-yl)piperidin-1-yl)pyrimidine-5-carbonitrile]"
2,14,"Cc1cc(-c2cn(CCN3CCC3)c(C3CCN(c4ncnc(N)c4C(N)=O)CC3)n2)ccc1F [Compound 124, 4-amino-6-(4-(1-(2-(azetidin-1-yl)ethyl)-4-(4-fluoro-3-methylphenyl)-1H-imidazol-2-yl)piperidin-1-yl)pyrimidine-5-carboxamide]"
1.5,9.7,"N#Cc1c(N)ncnc1N1CCC(c2nc(-c3ccnc(C(F)(F)F)c3)cn2CCN2CCC2)CC1 [Compound 125, 4-amino-6-(4-(1-(2-(azetidin-1-yl)ethyl)-4-(2-(trifluoromethyl)pyridin-4-yl)-1H-imidazol-2-yl)piperidin-1-yl)pyrimidine-5-carbonitrile]"
0.5,2.2,"Nc1ncnc(N2CCC(c3nc(-c4ccnc(C(F)(F)F)c4)cn3CCN3CCC3)CC2)c1Br [Compound 126, 6-(4-(1-(2-(azetidin-1-yl)ethyl)-4-(2-(trifluoromethyl)pyridin-4-yl)-1H-imidazol-2-yl)piperidin-1-yl)-5-bromopyrimidin-4-amine]"
1,2.8,"Nc1ncnc(N2CCC(c3nc(-c4ccnc(C(F)(F)F)c4)cn3CCNCCCCl)CC2)c1Br [Compound 127, 5-bromo-6-(4-(1-(2-((3-chloropropyl)amino)ethyl)-4-(2-(trifluoromethyl)pyridin-4-yl)-1H-imidazol-2-yl)piperidin-1-yl)pyrimidin-4-amine]"
11,250,"N#Cc1c(N)ncnc1N1CCC(c2nc(-c3ccoc3)cn2CCN2CCC2)CC1 [Compound 129, 4-amino-6-(4-(1-(2-(azetidin-1-yl)ethyl)-4-(furan-3-yl)-1H-imidazol-2-yl)piperidin-1-yl)pyrimidine-5-carbonitrile]"
2.6,91,"N#Cc1c(N)ncnc1N1CCC(c2nc(-c3ccsc3)cn2CCN2CCC2)CC1 [Compound 130, 4-amino-6-(4-(1-(2-(azetidin-1-yl)ethyl)-4-(thiophen-3-yl)-1H-imidazol-2-yl)piperidin-1-yl)pyrimidine-5-carbonitrile]"
5.7,165,"N#Cc1c(N)ncnc1N1CCC(c2nc(-c3ccccc3)cn2CCN2CCC2)CC1 [Compound 131, 4-amino-6-(4-(1-(2-(azetidin-1-yl)ethyl)-4-phenyl-1H-imidazol-2-yl)piperidin-1-yl)pyrimidine-5-carbonitrile]"
23,220,"N#Cc1c(N)ncnc1N1CCC(c2nc(-c3cnoc3)cn2CCN2CCC2)CC1 [Compound 132, 4-amino-6-(4-(1-(2-(azetidin-1-yl)ethyl)-4-(isoxazol-4-yl)-1H-imidazol-2-yl)piperidin-1-yl)pyrimidine-5-carbonitrile]"
46,3600,"NC(=O)c1c(N)ncnc1N1CCC(c2nc(-c3ccoc3)cn2CCN2CCC2)CC1 [Compound 133, 4-amino-6-(4-(1-(2-(azetidin-1-yl)ethyl)-4-(furan-3-yl)-1H-imidazol-2-yl)piperidin-1-yl)pyrimidine-5-carboxamide]"
6,1900,"NC(=O)c1c(N)ncnc1N1CCC(c2nc(-c3ccsc3)cn2CCN2CCC2)CC1 [Compound 134, 4-amino-6-(4-(1-(2-(azetidin-1-yl)ethyl)-4-(thiophen-3-yl)-1H-imidazol-2-yl)piperidin-1-yl)pyrimidine-5-carboxamide]"

SMILES,IC50 (P70S6K (T412E mutant)) [nM],IC50 (His-AKT (Full Length)) [nM]
NC(=O)c1c(N)ncnc1N1CCC(c2nc(-c3ccnc(C(F)(F)F)c3)cn2CCN2CCC2)CC1 [Compound 128],5.5,90
